The source of these data is patent US11992490B2, “Use of JAK1 inhibitors for the treatment of cutaneous lupus erythematosus and Lichen planus (LP)” (Incyte Corporation, priority 2019, dated 2024).

Bounds are passed on as bounds.

As a reminder, the IC50 is the concentration at which inhibition is half-maximal. Read a high IC50 as lower potency.

In test [1] the target is human JAK2 (a.a. 828-1132) (Homo sapiens (Human), UniProt O60674). Kind of test: In vitro JAK kinase assay (HTRF), JAK2. It is filed as biochemical. The settings on record: JAK2/JAK1 IC50 ratio, 1 mM ATP. (In general: TR-FRET usually uses a lanthanide donor and a delayed reading to cut background.)
The test system of test [2] is CLE-typical genes in NHEK. Kind of test: Gene expression (RNA sequencing, KEGG pathways) in eNA-stimulated NHEK. Type of test: cell-based, human. The note with it: for Count: number of genes >2-fold downregulated: NHEK. Here is the method: To analyze the functional principle and effect of JAK inhibition, the following established in vitro models of CLE were used. Immortalized keratinocytes (HaCaT), were acquired from CLS Cell Lines Service GmbH, Eppelheim, Germany), normal human epidermal keratinocytes (NHEKs, FC-0025) and Human epidermis equivalents (epiCS, CS-1001) from CellSystems, Troisdorf, Germany. These cell lines were cultured according the manufactures protocols. Cultured keratinocytes were stimulated with endogenous nucleic acids (eNA, 1.25 μg/mL) isolated from unstimulated keratinocytes using the “Genomic DNA from tissue” kit (Machery-Nagel, Dueren, Germany). Lipofectamine 2000 (Invitrogen, Carlsbad, USA) functioned as a transfection reagent (2.5 μL/mL). […] All experiments were implemented in biological triplicates. Enzyme-linked immunosorbent assays for human CXCL10 (DY266-05 R&D systems) were performed using DuoSet Ancillary Reagent Kit 2 (DY008 R&D systems) according to the supplied protocol, measured by Synergy HT Multi-Detection Multiplate Reader (BioTek, Winooski, VT, USA) and read out with Gen5 software (version 1.11.5).
To investigate the efficacy of pharmacological JAK1 inhibition, in vitro analyses in three different CLE-models were performed (i) NHEK-cells, (ii) HaCaT-cells and (iii) 3D epidermis equivalents.

Test [3] relates to TREX1−/− mice. In words: Topical treatment of CLE-like lesions in UV-stimulated lupus-prone TREX1-/- mice. The settings on record: 1% topical, seven days. It is filed as in vivo, mouse. An excerpt: TREX1^−/− mice (generated on C57BL/6J background; Cancer Research Institute, London, UK) were bred and maintained under specific pathogen-free conditions at the animal core facility of UKB Bonn (HET, Bonn, Germany). TREX1^−/− mice (n=8) were back-shaved and treated with 0.2% DNFB (1-Fluor-2,4-dinitrobenzol, Sigma Aldrich). 4 days later, UV-irradiation on 3 sequential days started with 450 mJ/cm^2 UVB for 115 seconds per day using UV801KL (Waldmann, Villingen-Schwenningen, Germany). For 7 days 1% INCB039110 or vehicle solved in DMSO and olive oil (50 μL per mouse) were applied topically. Every day photos of mice were taken and every 2 days mice were weighed.

The target of test [4] is human JAK1 (a.a. 837-1142) (Homo sapiens, UniProt P23458). Kind of test: In vitro JAK kinase assay (HTRF), JAK1. Type of test: biochemical. The note with it: 1 mM ATP.
The subject of test [5] is JAK1-phosphorylation in HaCaT keratinocytes. In words: JAK1-phosphorylation (anti-pJAK1 immunofluorescence) in eNA-stimulated HaCaT. Type of test: cell-based, human. The note with it: inhibitor 1 μM.
Test [6] deals with MRL-lpr mice. Kind of test: Topical treatment of CLE-like lesions in lupus-prone MRL-lpr mice. Type of test: in vivo, mouse. From the text: Topical treatment with JAK1-selective INCB054707 started with the MRL-lpr Mice at 11 weeks of age.
For test [7], the system named is patients with systemic lupus erythematosus. The settings on record: cited from earlier work.
Test [8] relates to SLE patients. The note with it: cited from earlier work.
The mark [9] stands for this setting: second independent experiment, dose-response.
Setting [10] is: topical, 11 to 22 weeks, compared to placebo-treated mice.

Sequence of human JAK2 (a.a. 828-1132) (O60674 828-1132): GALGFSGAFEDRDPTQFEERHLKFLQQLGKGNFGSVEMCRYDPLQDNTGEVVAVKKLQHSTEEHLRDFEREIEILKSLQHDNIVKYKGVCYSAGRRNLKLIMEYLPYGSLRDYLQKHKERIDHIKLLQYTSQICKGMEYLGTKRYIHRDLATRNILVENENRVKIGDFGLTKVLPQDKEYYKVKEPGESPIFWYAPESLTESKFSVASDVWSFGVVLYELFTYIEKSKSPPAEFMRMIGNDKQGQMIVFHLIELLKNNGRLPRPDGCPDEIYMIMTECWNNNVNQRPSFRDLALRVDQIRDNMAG

As for `N#CCC1(n2cc(-c3ncnc4[nH]ccc34)cn2)CN(C2CCN(C(=O)c3ccnc(C(F)(F)F)c3F)CC2)C1` [Compound 1, {1-{1-[3-Fluoro-2-(trifluoromethyl)isonicotinoyl]piperidin-4-yl}-3-[4-(7H-pyrrolo[2,3-d]pyrimidin-4-yl)-1H-pyrazol-1-yl]azetidin-3-yl}acetonitrile], in test [1], the JAK2/JAK1 is reported as over 10. For the same molecule, the “Count: number of genes >2-fold downregulated” value in test [2] (Arachidonic acid metabolism hsa00590) is given as 4; in test [2] (Chemokine signalling pathway hsa04062), 5; in test [2] (Cytokine-cytokine receptor interaction hsa04060), 9; in test [2] (Cytosolic DNA-sensing pathway hsa04623), 3; in test [2] (Ether lipid metabolism hsa00565) it was 3; in test [2] (Linoleic acid metabolism hsa00591), 3. The “Count: number of genes >2-fold downregulated” value in test [2] (Toll-like receptor signalling pathway hsa04620) worked out at 4; in test [2] (alpha-Linolenic acid metabolism hsa00592), 3. In test [2] (eNA-stimulated NHEK, p<0.05), the “downregulated expression of CLE-typical genes” value is over 2 fold. Moreover, the “histological features: epidermal thickness and infiltrating dermal immune cells” value in test [3] is listed as “significantly improved”. Further, the “lesional skin regarding erythema, induration, scaling and size” value in test [3] is on record as “continuously improved”. Further, the “lupus-skin-activity-score (adapted CLASI score)” value in test [3] (compared to placebo-treated mice) is “significantly reduced”. The IC50 in test [4] is under 10 nM. Besides, the “activation of JAK1 (JAK1-phosphorylation)” value in test [5] is listed as “significantly decreased”.

For `Cc1n[nH]c(C)c1-c1cnn(C2(CC#N)CN(c3cc(F)c(C(=O)N[C@@H](C)C(F)(F)F)cc3F)C2)c1` [INCB054707], in test [6] (setting [9]), the “cumulative skin lesion disease burden” value is recorded as “significant dose-dependent effects”, the “daily cutaneous skin lesion score” value is “significant dose-dependent effects” and the “incidence of mice with skin lesions” value is “significant dose-dependent effects”. Also, the “cumulative skin lesion disease burden (area under the curve)” value in test [6] (topical, 11 to 22 weeks) was “significantly reduced”. In test [6] (setting [10]), the “cutaneous skin lesion score” value is “significantly reduced” and the “incidence of mice with skin lesions” value is on record as “significantly reduced”. Moreover, the “inflammatory markers, RNAseq of skin biopsy” value in test [6] (topical, dose-dependent) was “downregulation of multiple inflammatory markers”. Further, the “lesional skin regarding erythema, induration, scaling and size” value in test [6] (topical, from 11 weeks to 22 weeks of age) is listed as “continuously improved”.

Consider `N#CC[C@H](C1CCCC1)n1cc(-c2ncnc3[nH]ccc23)cn1` [Ruxolitinib, (3R)-3-cyclopentyl-3-[4-(7H-pyrrolo[2,3-d]pyrimidin-4-yl)-1H-pyrazol-1-yl]propanenitrile, reference compound], for which the “activation of JAK1 (JAK1-phosphorylation)” value in test [5] is on record as “significantly decreased”.

On to `CCS(=O)(=O)N1CC(CC#N)(n2cc(-c3ncnc4[nH]ccc34)cn2)C1` [baricitinib], for which, in test [7] (2 mg or 4 mg once daily for 24 weeks, vs placebo), the “efficacy in treatment of SLE” value is recorded as “not effective”. Further, the CLASI activity score entry in test [7] (exploratory end point) is “no improvement”.

B1: anifrolumab: anti-IFNαβ-receptor antibody (antibody, chains of the INN, looked up)
heavy: EVQLVQSGAEVKKPGESLKISCKGSGYIFTNYWIAWVRQMPGKGLESMGIIYPGDSDIRYSPSFQGQVTISADKSITTAYLQWSSLKASDTAMYYCARHDIEGFDYWGRGTLVTVSSASTKGPSVFPLAPSSKSTSGGTAALGCLVKDYFPEPVTVSWNSGALTSGVHTFPAVLQSSGLYSLSSVVTVPSSSLGTQTYICNVNHKPSNTKVDKRVEPKSCDKTHTCPPCPAPEFEGGPSVFLFPPKPKDTLMISRTPEVTCVVVDVSHEDPEVKFNWYVDGVEVHNAKTKPREEQYNSTYRVVSVLTVLHQDWLNGKEYKCKVSNKALPASIEKTISKAKGQPREPQVYTLPPSREEMTKNQVSLTCLVKGFYPSDIAVEWESNGQPENNYKTTPPVLDSDGSFFLYSKLTVDKSRWQQGNVFSCSVMHEALHNHYTQKSLSLSPG
light: EIVLTQSPGTLSLSPGERATLSCRASQSVSSSFFAWYQQKPGQAPRLLIYGASSRATGIPDRLSGSGSGTDFTLTITRLEPEDFAVYYCQQYDSSAITFGQGTRLEIKRTVAAPSVFIFPPSDEQLKSGTASVVCLLNNFYPREAKVQWKVDNALQSGNSQESVTEQDSKDSTYSLSSTLTLSKADYEKHKVYACEVTHQGLSSPVTKSFNRGEC
As for B1, in test [8], the CLASI skin score entry is “significantly reduced”.
